Holding throughout (test): growth of human tumour cells (NCI), 48 h
Assay [1] relates to EKVX.
Assay [2] has as its system UACC-257.
For assay [3], the system named is DU-145.
Assay [4] concerns T47D.
For assay [5], the system named is MCF7.
For assay [6], the system named is OVCAR-8.
The subject of assay [7] is HCT-15.
Assay [8] has as its system NCI-H460.
Assay [9] relates to NCI-H226.
Assay [10] relates to CAKI-1.
Assay [11] relates to SF-295.
Assay [12] relates to LOX IMVI.
Assay [13] concerns HOP-62.
The subject of assay [14] is SNB-19.
Assay [15] deals with MDA-N.
Assay [16] deals with SNB-75.
Assay [17] concerns Hs-578T.
The test system of assay [18] is TK-10.
Assay [19] relates to NCI/ADR-RES.
The test system of assay [20] is RXF 393.

SMILES strings stand for the structures.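 Exposure lasted 48 hours, with cells grown in 96-well plates and compounds tested at five concentrations. At the GI50, growth is halved.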 The source made the active and inactive calls. Cut-off read from the data, not from the text of the source: active = GI50 up to about 1.1 µM and inactive = higher.

In the case of `C=CC1CN(C(=O)OCC)N(C(=O)OCC)C1CCc1ccccc1` (stereo not given), the GI50 in [1] was 72.4 µM (inactive); in assay [2] it was > 100 µM (inactive); in [3], > 100 µM (inactive); in assay [4] it was 33.3 µM (inactive); in [5], 42.2 µM (inactive); in [6], > 100 µM (inactive). In addition, the GI50 in assay [7] is 65.5 µM; in [8] it was 74.1 µM (inactive); in [9], > 100 µM (inactive); in [10], > 100 µM (inactive); in assay [11], 58.6 µM (inactive); in [12], > 100 µM (inactive). Further, the GI50 was > 100 µM (inactive) in assay [13]; > 100 µM (inactive) in assay [14]; > 100 µM (inactive) in assay [15]; 68.9 µM (inactive) in assay [16]; > 100 µM (inactive) in [17]; > 100 µM (inactive) in [18]. Further, the GI50 in assay [19] was 85.1 µM (inactive).
For the compound `Cc1cn([C@H]2C[C@H](O)[C@@H](CO)O2)c(=O)nc1N`, the GI50 in [2] was > 100 µM (inactive); in assay [3], > 100 µM (inactive); in [4], > 100 µM (inactive); in [5] it was > 100 µM (inactive); in assay [6] it was > 100 µM (inactive); in assay [7], above 100 µM. The GI50 in assay [8], in assay [9], in assay [10], in [11], in assay [12] and in assay [13] was > 100 µM (inactive) throughout. Also, the GI50 in [14], in [15], in [16], in assay [17], in assay [18] and in assay [19] was > 100 µM (inactive) in each case.
Consider `C/C(=N\NC(=S)NC1CCCC1)c1ccccn1`, for which the GI50 in [1] was < 0.01 µM (active); in assay [2] it was < 0.01 µM (active); in [3], 0.9 µM (active); in [4], < 0.01 µM (active); in assay [5], < 0.01 µM (active); in assay [6], < 0.0218 µM (active). Moreover, the GI50 in [7] is below 0.01 µM; in [8], 0.0533 µM (active); in [9], 0.0416 µM (active); in assay [10], < 0.01 µM (active); in [11], 0.223 µM (active); in assay [12] it was < 0.01 µM (active). Further, the GI50 is < 0.017 µM (active) in assay [13]; 1.05 µM (active) in assay [14]; 0.165 µM (active) in [15]; 2.25 µM (inactive) in assay [16]; 36.6 µM (inactive) in [17]; 0.202 µM (active) in assay [18]. Moreover, the GI50 in assay [19] is < 0.01 µM (active).
For the compound `Cc1nnc2sc(-c3ccc(-c4ccccc4Cl)o3)nn12`, the GI50 is 33 µM (inactive) in assay [1]; 44.5 µM (inactive) in assay [2]; 36.6 µM (inactive) in [3]; 20.9 µM (inactive) in [4]; 29.1 µM (inactive) in [5]; 33.8 µM (inactive) in assay [20]. Also, the GI50 in assay [6] is 19.8 µM (inactive); in [7] it was 24.9 µM; in assay [8] it was 35.1 µM (inactive); in [9], 20.8 µM (inactive); in assay [10], 56 µM (inactive); in assay [11], 32.1 µM (inactive). Further, the GI50 in assay [12] is 20.9 µM (inactive); in assay [13] it was > 100 µM (inactive); in [14], 40.5 µM (inactive); in assay [15] it was 17.9 µM (inactive); in [17], 55.7 µM (inactive); in assay [18] it was 45.1 µM (inactive). Further, the GI50 in [19] is 21.9 µM (inactive).

The values above are taken from ChEMBL document CHEMBL1201862, “PubChem BioAssay data set” (2004).
